These results are taken from patent US20050032124A1, “Identification of genotype-selective agents for treating Huntington's disease” (priority 2003, published 2005).

Values after ≈ are worked out from the molar mass of the structure shown. Like-named read-outs stand apart in the source and are kept apart here. A value given as a limit tells only on which side of the number the result lay.

What all share (assay): Calcein AM viability assay, dilution-series retest
Common to all, as to format: cell-based, human

The subject of one experiment is TIP5/TERT cells. The settings on record: Homo sapiens, 48 h, read-out: IC50, TIP5-TERT. From the text: (§1) In a third series, cell lines derived from independently prepared human TIP5 foreskin fibroblasts created by introducing cDNA constructs encoding hTERT, LT, ST and RASV12 (Lessnick et al., 2002, Cancer Cell 1, 393-401) were used. These cell lines were called, respectively: TIP5/TERT, TIP5/TERT/LT, TIP5/TERT/LT/ST, and TIP5/TERT/LT/ST/RAS^V12. In a fourth series, cell lines derived from TIP5 fibroblasts created by introducing cDNA constructs encoding hTERT, E6, E7, ST and RAS^V12 were used. These cell lines were named, respectively: TIP5/TERT/E6, TIP5/TERT/E6/E7, TIP5/TERT/E6/E7/ST, and TIP5/TERT/E6/E7/ST/RAS^V12. In this series, HPV E6 and E7, which inactivate p53 and RB, respectively, serve a similar function as LT in the previous series. However, by using HPV E6 and E7, Applicants were able to observe the effects of inactivating, separately and independently, p53 and RB. Results of a large-scale screen for compounds that display selective killing of these engineered tumorigenic cell lines are described in the examples that follow.
(§2) Calcein acetoxylmethyl ester (AM) is a cell membrane-permeable, non-fluorescent compound that is cleaved by intracellular esterases to form the anionic, cell-impermeable, fluorescent compound calcein. Viable cells are stained by calcein because of the presence of intracellular esterases and because the intact plasma membrane prevents fluorescent calcein from leaking out of cells (Wang et al., 1993, supra). Cells were seeded in 384-well plates using a Zymark Sciclone ALH, treated with each compound in triplicate at 4 μg/mL in the primary screen for two days, washed with phosphate-buffered saline on a Packard Minitrak with a 384-well washer and incubated for four hours with 0.7 μg/mL calcein (Molecular Probes). Total fluorescence intensity in each well was recorded on a Packard Fusion platereader, and converted to a percent inhibition of signal by subtracting the instrument background and dividing by the average signal obtained when cells were not treated with any compound.
(§3) Replica daughter plates were prepared with a Zymark Sciclone ALH and integrated Twister II by diluting stock plates 50 fold in medium lacking serum and pen/strep to obtain a compound concentration in daughter plates of 80 μg/ml with 2% DMSO. Assay plates were prepared by seeding cells in black, clear bottom 384-well plates in columns 1-23 (6000 cells/well in 57 μl) using a syringe bulk dispenser. Columns 3-22 were treated with compounds from a daughter library plate by transferring 3 μl from the daughter library plate using 384-position fixed cannula array. The final compound concentrations in assay plates were thus 4 μg/ml. The assay plates were incubated for 48 hours at 37° C. in humidified incubator containing 5% CO2. Plate processing for the calcein AM viability assay was performed using an integrated Minitrak/Sidetrak robotic system from Packard Bioscience (Perkin Elmer). Assay plates were washed with phosphate buffered saline, and 20 μl of calcein AM (0.7 μg/ml) per well was added. Plates were incubated at room temperature for 4 hours. Fluorescence intensity was determined using a Fusion platereader with filters centered on an excitation of 485 nm and an emission of 535 nm.
(§4) Compounds to be retested were purchased from manufacturers. Stocks were prepared in DMSO at a concentration of 1 mg/ml in 384-well polypropylene plates with a 16-point, two-fold dilution dose curve of each compound in a column, in duplicates. Column 1-2 and 23-24 were left empty for controls. Daughter retest plates were prepared from stock retest plate by diluting 66.6 fold in DMEM in 384-well deep-deep well plates (4.5 μl transfer into 300 μl). Cells were seeded at a density of 6000 per well in 40 μl, and 20 μl was added from a daughter retest plate. The plates were incubated for two days at 37° C. with 5% CO2.
(§5) Mean RFU (relative fluorescence units) for untreated cells was calculated by averaging columns 1, 2, and 23 (wells with cells but lacking compounds). […]

The subject of a further experiment is TIP5/TERT/E6/E7/ST cells. The following applies: Homo sapiens, 48 h, read-out: IC50, TIP5-TERT/E6E7 ST.
Description: as §1, §2, §3, §4, §5

For a further experiment, the system named is TIP5/TERT/LT cells. The settings on record: Homo sapiens, 48 h, read-out: IC50, TIP5 TERT/LT.
Description: as §1, §2, §3, §4, §5

The test system of experiment [1] is TIP5/TERT/LT/ST/RAS^V12 cells. The following applies: Homo sapiens, 48 h, read-out: IC50, TIP5 TERT/LT/ST/Ras^V12.
Description: as §1, §2, §3, §4, §5

The test system of a further experiment is TIP5/TERT/E6/E7 cells. The settings on record: for IC50: Homo sapiens, 48 h, read-out: IC50, TIP5-TERT/E6E7.
Description: as §1, §2, §3, §4, §5

The subject of experiment [2] is TIP5/TERT/E6/E7/ST/RAS^V12 cells. The settings on record: Homo sapiens, 48 h, read-out: IC50, TIP5-TERT/E6E7 ST/Ras^V12.
Description: as §1, §2, §3, §4, §5

Experiment [3] concerns BJ-TERT/LT/ST/RAS^V12 tumorigenic cells. The settings on record: for IC50: Homo sapiens, 48 h, read-out: IC50, BJ-TERT/LT/ST/Ras^V12; for Tumor Selectivity: IC50 in primary BJ cells divided by IC50 in BJ-TERT/LT/ST/RAS^V12 tumorigenic cells. As for the experimental part: Described here is work carried out to identify compounds with increased potency or activity in the presence of hTERT, LT, ST, E6, E7 or RAS^V12. […] The primary screen tested (in quadruplicate) the effect of treating tumorigenic BJ-TERT/LT/ST/RAS^V12 engineered tumorigenic cells with each compound for 48 hours at a concentration of 4 μg/mL, corresponding to 10 μM for a compound with a molecular weight of 400, which is the approximate median molecular weight of the libraries. Cell viability was measured using the dye calcein acetoxymethyl ester (calcein AM) (Wang et al., 1993, Hum. Immunol. 3 7, 264-270), which is a non-fluorescent compound that freely diffuses into cells. In live cells, calcein AM is cleaved by intracellular esterases, forming the anionic fluorescent derivative calcein, which cannot diffuse out of live cells. […] The IC50 value (concentration required to inhibit 50% of the calcein AM signal) was calculated for each compound in each cell line (Table 1).
as §2, §3, §4

Where [4] appears, read: BJ-TERT/LT/ST/Ras^V12 cells, 16-point two-fold dilution, two days.
Where [5] appears, read: TIP5-TERT cells, 16-point two-fold dilution, two days.
[6] abbreviates: TIP5-TERT/E6E7/ST cells, 16-point two-fold dilution, two days.
[7] abbreviates: TIP5 TERT/LT cells, 16-point two-fold dilution, two days.
Where [8] appears, read: TIP5 TERT/LT/ST/Ras^V12 cells, 16-point two-fold dilution, two days.
The mark [9] stands for this setting: TIP5-TERT/E6E7 cells, 16-point two-fold dilution, two days.
The mark [10] stands for this setting: TIP5-TERT/E6E7/ST/Ras^V12 cells, 16-point two-fold dilution, two days.

In the case of `COc1ccc(C[C@H]2C(=O)N[C@@H](C)C(=O)N(C)[C@@H]3C(=O)N(C)[C@@H](Cc4ccc(O)c(c4)Oc4ccc(cc4)[C@@H]3O)C(=O)N[C@H](C)C(=O)N[C@@H](C)C(=O)N2C)cc1` [Bouvardin], the IC50 with TIP5/TERT cells is above 5 µg/mL; in the experiment with TIP5/TERT/E6/E7/ST cells it was 0.039 µg/mL (≈ 0.0505 µM); in the experiment on TIP5/TERT/LT cells it was 0.312 µg/mL (≈ 0.404 µM); in experiment [1], 0.039 µg/mL (≈ 0.0505 µM); in the experiment on TIP5/TERT/E6/E7 cells it was 0.039 µg/mL (≈ 0.0505 µM); in experiment [2], 0.078 µg/mL (≈ 0.101 µM). Moreover, in experiment [3] (setting [4]), the IC50 is 0.078 µg/mL (≈ 0.101 µM). For the same compound, in experiment [3], the “Tumor Selectivity” value was 4.
Turning to `CC[C@@]1(O)C(=O)OCc2c1cc1n(c2=O)Cc2cc3ccccc3nc2-1` [Camptothecin], the IC50 with TIP5/TERT cells (setting [5]) is above 5 µg/mL; in the experiment with TIP5/TERT/E6/E7/ST cells (setting [6]), 0.156 µg/mL (≈ 0.448 µM); in the experiment on TIP5/TERT/LT cells (setting [7]) it was above 5 µg/mL; in experiment [1] (setting [8]), 0.156 µg/mL (≈ 0.448 µM); in the experiment with TIP5/TERT/E6/E7 cells (setting [9]) it was 0.625 µg/mL (≈ 1.79 µM); in experiment [2] (setting [10]), 0.156 µg/mL (≈ 0.448 µM). In addition, the IC50 in experiment [3] (setting [4]) was 0.0195 µg/mL (≈ 0.056 µM). For the same compound, in the experiment on TIP5/TERT/E6/E7 cells, the “activity in cells lacking RB function (via expression of E7)” value is on record as “partially active”. Also, the “Tumor Selectivity” value in experiment [3] is recorded as above 512.
With `COc1cccc2c1C(=O)c1c(O)c3c(c(O)c1C2=O)C[C@@](O)(C(C)=O)C[C@@H]3O[C@H]1C[C@H](N)[C@H](O)[C@H](C)O1` [Daunorubicin], the IC50 is above 5 µg/mL with TIP5/TERT cells; 0.625 µg/mL (≈ 1.18 µM) with TIP5/TERT/E6/E7/ST cells; 1.25 µg/mL (≈ 2.37 µM) in the experiment with TIP5/TERT/LT cells; 0.825 µg/mL (≈ 1.56 µM) in experiment [1]; 0.625 µg/mL (≈ 1.18 µM) in the experiment with TIP5/TERT/E6/E7 cells; 0.625 µg/mL (≈ 1.18 µM) in experiment [2]. Besides, in experiment [3] (setting [4]), the IC50 was 0.312 µg/mL (≈ 0.591 µM). In addition, the “Tumor Selectivity” value in experiment [3] is recorded as 16.
On to `COc1cccc2c1C(=O)c1c(O)c3c(c(O)c1C2=O)C[C@@](O)(C(=O)CO)C[C@@H]3O[C@H]1C[C@H](N)[C@H](O)[C@H](C)O1` [Doxorubicin], for which the IC50 with TIP5/TERT cells (setting [5]) is above 5 µg/mL; with TIP5/TERT/E6/E7/ST cells (setting [6]), 1.25 µg/mL (≈ 2.3 µM); in the experiment with TIP5/TERT/LT cells (setting [7]) it was 1.25 µg/mL (≈ 2.3 µM); in experiment [1] (setting [8]), 0.625 µg/mL (≈ 1.15 µM); with TIP5/TERT/E6/E7 cells (setting [9]), 1.25 µg/mL (≈ 2.3 µM); in experiment [2] (setting [10]) it was 1.25 µg/mL (≈ 2.3 µM). Besides, the IC50 in experiment [3] (setting [4]) is 1.25 µg/mL (≈ 2.3 µM). Besides, the “Tumor Selectivity” value in experiment [3] was above 8.
For the compound `CS[C@H]1SC[C@H]2C(=O)N(C)[C@@H](C(C)C)C(=O)OC[C@@H](NC(=O)c3cnc4ccccc4n3)C(=O)N[C@@H](C)C(=O)N(C)[C@@H]1C(=O)N(C)[C@@H](C(C)C)C(=O)OC[C@@H](NC(=O)c1cnc3ccccc3n1)C(=O)N[C@@H](C)C(=O)N2C` [Echinomycin], the IC50 was above 5 µg/mL in the experiment on TIP5/TERT cells; 0.048 µg/mL (≈ 0.0436 µM) with TIP5/TERT/E6/E7/ST cells; 5 µg/mL (≈ 4.54 µM) with TIP5/TERT/LT cells; 0.0024 µg/mL (≈ 0.00218 µM) in experiment [1]; 0.048 µg/mL (≈ 0.0436 µM) in the experiment with TIP5/TERT/E6/E7 cells; 0.0048 µg/mL (≈ 0.00436 µM) in experiment [2]. The IC50 in experiment [3] was 0.0012 µg/mL (≈ 0.00109 µM). Also, the “Tumor Selectivity” value in experiment [3] is recorded as above 8333.
As for `CCOc1ccccc1-n1c(C(C)N2CCN(C(=O)COc3ccc(Cl)cc3)CC2)nc2ccccc2c1=O` (centres unmarked) [Erastin], the IC50 with TIP5/TERT cells (setting [5]) was above 5 µg/mL; in the experiment with TIP5/TERT/E6/E7/ST cells (setting [6]), above 5 µg/mL; in the experiment on TIP5/TERT/LT cells (setting [7]), above 5 µg/mL; in experiment [1] (setting [8]), 2.5 µg/mL (≈ 4.57 µM); in the experiment on TIP5/TERT/E6/E7 cells (setting [9]), above 5 µg/mL; in experiment [2] (setting [10]) it was 5 µg/mL (≈ 9.14 µM). Besides, the IC50 in experiment [3] (setting [4]) is 1.25 µg/mL (≈ 2.28 µM). Also, the “Tumor Selectivity” value in experiment [3] is on record as above 8.
On to `O=C1c2c(O)ccc(O)c2C(=O)c2c(NCCNCCO)ccc(NCCNCCO)c21` [Mitoxantrone], for which the IC50 was above 5 µg/mL in the experiment with TIP5/TERT cells (setting [5]); 0.625 µg/mL (≈ 1.41 µM) in the experiment with TIP5/TERT/E6/E7/ST cells (setting [6]); 1.25 µg/mL (≈ 2.81 µM) with TIP5/TERT/LT cells (setting [7]); 1.25 µg/mL (≈ 2.81 µM) in experiment [1] (setting [8]); 0.625 µg/mL (≈ 1.41 µM) in the experiment on TIP5/TERT/E6/E7 cells (setting [9]); 1.25 µg/mL (≈ 2.81 µM) in experiment [2] (setting [10]). In addition, in experiment [3] (setting [4]), the IC50 was 0.312 µg/mL (≈ 0.702 µM). Moreover, the “Tumor Selectivity” value in experiment [3] is 18.
As to `NC(=O)c1cn([C@@H]2O[C@H](CO)[C@@H](O)[C@H]2O)c2ncnc(N)c12` [Sangivamycin], the IC50 was 1.25 µg/mL (≈ 4.04 µM) with TIP5/TERT cells; 0.078 µg/mL (≈ 0.252 µM) in the experiment with TIP5/TERT/E6/E7/ST cells; 0.312 µg/mL (≈ 1.01 µM) with TIP5/TERT/LT cells; 0.078 µg/mL (≈ 0.252 µM) in experiment [1]; 0.078 µg/mL (≈ 0.252 µM) in the experiment with TIP5/TERT/E6/E7 cells; 0.078 µg/mL (≈ 0.252 µM) in experiment [2]. The IC50 in experiment [3] (setting [4]) is 0.078 µg/mL (≈ 0.252 µM). In experiment [3], the “Tumor Selectivity” value was 4.
